Reference: ChEMBL document CHEMBL4007467, “Effects of 6-paradol, an unsaturated ketone from gingers, on cytochrome P450-mediated drug metabolism” (Bioorg Med Chem Lett, 2017)

What was measured:
Assay type in all cases: ADME
Cytochrome P450 3A4 [1] = molecular target: T1, Cytochrome P450 3A4 (Homo sapiens, UniProt P08684); experiment: Inhibition of recombinant human CYP3A4 expressed in baculosomes using Vivid DBOMF substrate green measured every 30 sec for 30 mins by fluorescence assay
Cytochrome P450 2C19 [2] = molecular target: T2, Cytochrome P450 2C19 (Homo sapiens, UniProt P33261); experiment: Inhibition of recombinant human CYP2C19 expressed in baculosomes using Vivid EOMCC substrate blue measured every 30 sec for 30 mins by fluorescence assay
Cytochrome P450 2B6 = molecular target: T3, Cytochrome P450 2B6 (Homo sapiens, UniProt P20813); experiment: Inhibition of CYP2B6 in human liver microsomes using bupropion as substrate preincubated for 10 mins followed by NADPH addition measured after 20 mins
T3 sequence (P20813 whole entry): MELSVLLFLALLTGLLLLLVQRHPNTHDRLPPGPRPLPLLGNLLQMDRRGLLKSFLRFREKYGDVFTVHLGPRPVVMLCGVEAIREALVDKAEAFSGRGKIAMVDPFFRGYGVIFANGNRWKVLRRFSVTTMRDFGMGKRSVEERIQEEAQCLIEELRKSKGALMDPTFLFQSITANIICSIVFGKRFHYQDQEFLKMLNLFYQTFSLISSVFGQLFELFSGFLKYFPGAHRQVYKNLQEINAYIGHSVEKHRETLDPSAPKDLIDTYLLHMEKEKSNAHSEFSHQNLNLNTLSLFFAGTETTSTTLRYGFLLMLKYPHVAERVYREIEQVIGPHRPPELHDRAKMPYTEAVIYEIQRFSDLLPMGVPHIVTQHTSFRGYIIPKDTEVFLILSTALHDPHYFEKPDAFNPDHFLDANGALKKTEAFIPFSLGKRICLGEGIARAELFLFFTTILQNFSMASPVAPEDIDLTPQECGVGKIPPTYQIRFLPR

Cytochrome P450 1A2 [3] = molecular target: T4, Cytochrome P450 1A2 (Homo sapiens, UniProt P05177); experiment: Inhibition of CYP1A2 in human liver microsomes using phenacetin as substrate preincubated for 10 mins followed by NADPH addition measured after 10 mins
T4 sequence (P05177 whole entry): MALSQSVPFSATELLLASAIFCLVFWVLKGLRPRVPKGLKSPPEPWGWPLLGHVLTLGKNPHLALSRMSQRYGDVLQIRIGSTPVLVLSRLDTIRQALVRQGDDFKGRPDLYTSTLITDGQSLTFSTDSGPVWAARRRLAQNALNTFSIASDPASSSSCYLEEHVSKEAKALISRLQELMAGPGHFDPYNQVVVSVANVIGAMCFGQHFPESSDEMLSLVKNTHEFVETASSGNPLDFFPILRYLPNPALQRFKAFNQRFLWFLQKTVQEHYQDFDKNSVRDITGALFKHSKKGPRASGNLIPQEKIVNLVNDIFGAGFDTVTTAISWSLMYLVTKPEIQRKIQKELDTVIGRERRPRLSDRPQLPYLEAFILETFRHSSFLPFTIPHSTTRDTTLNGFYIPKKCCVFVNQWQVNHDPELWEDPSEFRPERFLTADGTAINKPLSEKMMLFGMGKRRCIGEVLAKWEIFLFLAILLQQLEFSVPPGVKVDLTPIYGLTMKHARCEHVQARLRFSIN

Cytochrome P450 2D6 [4] = molecular target: T5, Cytochrome P450 2D6 (Homo sapiens, UniProt P10635); experiment: Inhibition of recombinant human CYP2D6 expressed in baculosomes using Vivid EOMCC substrate blue measured every 30 sec for 30 mins by fluorescence assay
Cytochrome P450 3A4 [5] = molecular target: T1, Cytochrome P450 3A4; experiment: Inhibition of CYP3A4 in human liver microsomes using testosterone as substrate preincubated for 10 mins followed by NADPH addition measured after 10 mins
Cytochrome P450 2C9 [6] = molecular target: T6, Cytochrome P450 2C9 (Homo sapiens, UniProt P11712); experiment: Inhibition of CYP2C9 in human liver microsomes using diclofenac as substrate preincubated for 10 mins followed by NADPH addition measured after 7 mins
Cytochrome P450 2C19 [7] = molecular target: T2, Cytochrome P450 2C19; experiment: Inhibition of CYP2C19 in human liver microsomes using (S)-mephenytoin as substrate preincubated for 10 mins followed by NADPH addition measured after 40 mins
Cytochrome P450 3A4 [8] = molecular target: T1, Cytochrome P450 3A4; experiment: Inhibition of recombinant human CYP3A4 expressed in baculosomes using Vivid BOMR substrate red measured every 30 sec for 30 mins by fluorescence assay
Cytochrome P450 3A4 [9] = molecular target: T1, Cytochrome P450 3A4; experiment: Inhibition of recombinant human CYP3A4 expressed in baculosomes using Vivid BOMCC substrate blue measured every 30 sec for 30 mins by fluorescence assay
Cytochrome P450 2A6 = molecular target: T7, Cytochrome P450 2A6 (Homo sapiens, UniProt P11509); experiment: Inhibition of CYP2A6 in human liver microsomes using Coumarin as substrate preincubated for 10 mins followed by NADPH addition measured after 15 mins
T7 sequence (P11509 whole entry): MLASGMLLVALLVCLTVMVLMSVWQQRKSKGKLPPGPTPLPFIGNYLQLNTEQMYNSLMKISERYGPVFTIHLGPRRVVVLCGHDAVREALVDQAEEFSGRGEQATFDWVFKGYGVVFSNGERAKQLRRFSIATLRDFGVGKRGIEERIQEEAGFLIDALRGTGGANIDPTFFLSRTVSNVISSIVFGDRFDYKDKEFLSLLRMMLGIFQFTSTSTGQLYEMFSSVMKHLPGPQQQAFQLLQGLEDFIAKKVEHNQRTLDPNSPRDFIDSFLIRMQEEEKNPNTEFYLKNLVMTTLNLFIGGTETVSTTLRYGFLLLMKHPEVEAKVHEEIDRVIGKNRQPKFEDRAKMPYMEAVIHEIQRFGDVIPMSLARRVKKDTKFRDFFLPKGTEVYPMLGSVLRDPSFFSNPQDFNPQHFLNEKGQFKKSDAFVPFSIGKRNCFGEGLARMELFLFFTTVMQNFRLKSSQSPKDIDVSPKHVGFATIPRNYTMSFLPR

Cytochrome P450 2C9 [10] = molecular target: T6, Cytochrome P450 2C9; experiment: Inhibition of recombinant human CYP2C9 expressed in baculosomes using Vivid OOMR substrate red measured every 30 sec for 30 mins by fluorescence assay
Cytochrome P450 2E1 [11] = molecular target: T8, Cytochrome P450 2E1 (Homo sapiens, UniProt P05181); experiment: Inhibition of CYP2E1 in human liver microsomes using chlorzoxazone as substrate preincubated for 10 mins followed by NADPH addition measured after 20 mins
Cytochrome P450 2C8 = molecular target: T9, Cytochrome P450 2C8 (Homo sapiens, UniProt P10632); experiment: Inhibition of CYP2C8 in human liver microsomes using amodiaquin as substrate preincubated for 10 mins followed by NADPH addition measured after 10 mins
T9 sequence (P10632 whole entry): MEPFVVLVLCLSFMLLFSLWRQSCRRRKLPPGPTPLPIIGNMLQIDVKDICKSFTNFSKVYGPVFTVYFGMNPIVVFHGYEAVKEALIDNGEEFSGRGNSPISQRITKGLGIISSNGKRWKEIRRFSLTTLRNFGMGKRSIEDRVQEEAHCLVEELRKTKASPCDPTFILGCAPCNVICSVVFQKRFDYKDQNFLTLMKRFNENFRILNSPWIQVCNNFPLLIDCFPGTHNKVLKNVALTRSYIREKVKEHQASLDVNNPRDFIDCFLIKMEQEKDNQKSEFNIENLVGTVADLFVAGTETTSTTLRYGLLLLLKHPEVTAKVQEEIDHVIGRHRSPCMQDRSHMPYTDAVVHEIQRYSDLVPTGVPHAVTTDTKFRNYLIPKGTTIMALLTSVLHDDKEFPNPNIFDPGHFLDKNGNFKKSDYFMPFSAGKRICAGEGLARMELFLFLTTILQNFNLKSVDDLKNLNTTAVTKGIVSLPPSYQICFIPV

Cytochrome P450 2D6 [12] = molecular target: T5, Cytochrome P450 2D6; experiment: Inhibition of CYP2D6 in human liver microsomes using dextromethorphan as substrate preincubated for 10 mins followed by NADPH addition measured after 15 mins
Cytochrome P450 3A4 [13] = molecular target: T1, Cytochrome P450 3A4; experiment: Inhibition of CYP3A4 in human liver microsomes using midazolam as substrate
Cytochrome P450 1A2 [14] = molecular target: T4, Cytochrome P450 1A2; experiment: Inhibition of CYP1A2 in human liver microsomes using phenacetin as substrate by HPLC analysis
Cytochrome P450 2C19 [15] = molecular target: T2, Cytochrome P450 2C19; experiment: Inhibition of CYP2C19 in human liver microsomes using (S)-mephenytoin as substrate by HPLC analysis
Cytochrome P450 2C9 [16] = molecular target: T6, Cytochrome P450 2C9; experiment: Inhibition of CYP2C9 in human liver microsomes using tolbutamide as substrate by HPLC analysis
Cytochrome P450 3A4 [17] = molecular target: T1, Cytochrome P450 3A4; experiment: Inhibition of CYP3A4 in human liver microsomes using midazolam as substrate preincubated for 10 mins followed by NADPH addition measured after 5 mins
Cytochrome P450 2E1 [18] = molecular target: T8, Cytochrome P450 2E1; experiment: Inhibition of CYP2E1 in human liver microsomes using chlorzoxazone as substrate by HPLC analysis

T6 sequence (P11712 whole entry): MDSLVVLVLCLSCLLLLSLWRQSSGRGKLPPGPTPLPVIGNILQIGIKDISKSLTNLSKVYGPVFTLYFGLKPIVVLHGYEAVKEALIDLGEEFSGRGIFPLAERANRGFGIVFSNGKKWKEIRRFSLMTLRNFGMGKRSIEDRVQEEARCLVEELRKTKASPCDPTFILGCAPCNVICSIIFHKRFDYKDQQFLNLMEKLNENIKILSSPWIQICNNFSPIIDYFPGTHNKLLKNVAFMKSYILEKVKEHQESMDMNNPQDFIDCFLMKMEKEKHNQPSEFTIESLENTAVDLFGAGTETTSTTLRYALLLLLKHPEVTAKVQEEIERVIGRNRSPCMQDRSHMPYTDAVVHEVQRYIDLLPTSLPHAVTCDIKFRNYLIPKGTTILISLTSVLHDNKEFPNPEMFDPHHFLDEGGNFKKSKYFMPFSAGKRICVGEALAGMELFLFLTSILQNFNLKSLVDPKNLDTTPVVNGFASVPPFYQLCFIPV
T8 sequence (P05181 whole entry): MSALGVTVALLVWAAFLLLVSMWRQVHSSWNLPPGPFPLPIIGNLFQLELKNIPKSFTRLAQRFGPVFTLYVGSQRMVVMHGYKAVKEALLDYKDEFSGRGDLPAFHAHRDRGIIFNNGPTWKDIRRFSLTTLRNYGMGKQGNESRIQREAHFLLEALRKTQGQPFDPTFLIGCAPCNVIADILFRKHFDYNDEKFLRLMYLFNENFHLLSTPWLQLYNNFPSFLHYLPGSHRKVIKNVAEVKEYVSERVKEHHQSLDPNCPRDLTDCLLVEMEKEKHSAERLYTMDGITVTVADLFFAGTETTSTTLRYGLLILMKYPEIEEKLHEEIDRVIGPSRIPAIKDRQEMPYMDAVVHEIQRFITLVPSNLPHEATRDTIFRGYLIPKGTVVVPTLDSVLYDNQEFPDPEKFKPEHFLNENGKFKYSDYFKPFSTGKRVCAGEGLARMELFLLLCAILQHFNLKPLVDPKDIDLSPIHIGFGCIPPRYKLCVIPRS
T1 sequence (P08684 whole entry): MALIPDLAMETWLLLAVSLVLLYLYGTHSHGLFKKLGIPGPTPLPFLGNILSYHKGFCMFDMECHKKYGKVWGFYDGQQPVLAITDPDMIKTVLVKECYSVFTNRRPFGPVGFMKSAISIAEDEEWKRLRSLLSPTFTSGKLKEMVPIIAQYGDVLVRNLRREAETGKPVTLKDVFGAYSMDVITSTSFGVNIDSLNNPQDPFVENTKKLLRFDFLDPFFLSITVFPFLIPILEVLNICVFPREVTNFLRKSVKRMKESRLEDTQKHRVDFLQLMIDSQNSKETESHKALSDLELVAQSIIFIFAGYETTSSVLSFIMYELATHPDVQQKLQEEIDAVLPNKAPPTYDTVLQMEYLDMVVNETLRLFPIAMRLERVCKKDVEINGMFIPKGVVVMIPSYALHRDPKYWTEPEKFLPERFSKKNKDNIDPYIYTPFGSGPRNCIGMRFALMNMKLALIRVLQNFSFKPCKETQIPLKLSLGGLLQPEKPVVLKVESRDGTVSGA
T2 sequence (P33261 whole entry): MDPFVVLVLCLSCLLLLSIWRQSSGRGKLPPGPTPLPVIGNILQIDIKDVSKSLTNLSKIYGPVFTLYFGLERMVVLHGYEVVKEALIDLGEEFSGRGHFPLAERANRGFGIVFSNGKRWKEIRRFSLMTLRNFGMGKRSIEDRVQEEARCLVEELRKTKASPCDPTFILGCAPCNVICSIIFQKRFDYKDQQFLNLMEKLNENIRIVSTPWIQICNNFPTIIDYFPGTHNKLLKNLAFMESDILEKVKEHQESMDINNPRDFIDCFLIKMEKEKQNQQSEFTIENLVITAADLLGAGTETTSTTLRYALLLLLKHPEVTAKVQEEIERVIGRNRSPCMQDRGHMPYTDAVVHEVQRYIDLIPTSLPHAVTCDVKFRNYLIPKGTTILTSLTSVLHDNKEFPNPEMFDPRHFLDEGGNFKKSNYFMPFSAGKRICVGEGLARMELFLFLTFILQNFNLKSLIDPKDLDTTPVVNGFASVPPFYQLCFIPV
T5 sequence (P10635 whole entry): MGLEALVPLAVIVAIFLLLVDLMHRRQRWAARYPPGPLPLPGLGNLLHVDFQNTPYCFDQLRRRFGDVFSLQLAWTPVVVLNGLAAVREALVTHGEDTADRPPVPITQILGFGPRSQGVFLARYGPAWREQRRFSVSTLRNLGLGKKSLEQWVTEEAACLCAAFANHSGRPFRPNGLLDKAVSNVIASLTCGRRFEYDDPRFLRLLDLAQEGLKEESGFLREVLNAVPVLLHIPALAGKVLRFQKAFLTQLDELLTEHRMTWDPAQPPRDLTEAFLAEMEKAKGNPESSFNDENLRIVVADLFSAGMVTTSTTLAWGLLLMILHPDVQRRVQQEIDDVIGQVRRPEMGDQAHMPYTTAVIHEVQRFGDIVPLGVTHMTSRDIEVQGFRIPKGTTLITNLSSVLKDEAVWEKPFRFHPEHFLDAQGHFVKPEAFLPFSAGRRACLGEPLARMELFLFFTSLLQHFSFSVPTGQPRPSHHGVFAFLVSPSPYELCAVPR

SMILES | IC50 (Cytochrome P450 3A4 [1]) [µM] | IC50 (Cytochrome P450 2C19 [2]) [µM] | IC50 (Cytochrome P450 2B6) [µM] | IC50 (Cytochrome P450 1A2 [3]) [µM] | IC50 (Cytochrome P450 3A4 [5]) [µM] | IC50 (Cytochrome P450 2C9 [6]) [µM] | IC50 (Cytochrome P450 2C19 [7]) [µM] | IC50 (Cytochrome P450 3A4 [8]) [µM] | IC50 (Cytochrome P450 3A4 [9]) [µM] | IC50 (Cytochrome P450 2A6) [µM] | IC50 (Cytochrome P450 2C9 [10]) [µM] | IC50 (Cytochrome P450 2E1 [11]) [µM] | IC50 (Cytochrome P450 2C8) [µM] | IC50 (Cytochrome P450 2D6 [12]) [µM] | other results
CCCCCCC[C@H](O)CC(=O)CCc1ccc(O)c(OC)c1 | 11.6 | 12.5 | 8.1 | 27.3 | 8.1 | 8.7 | 8.1 | 10.5 | 8.7 | 59 | 6.8 | 93.2 | 2.2 | 74.5 | IC50 (Cytochrome P450 2D6 [4]): 42.7 µM
CCCCCCCCC[C@H](O)CC(=O)CCc1ccc(O)c(OC)c1 | 21.8 | 13.6 | 4.3 |  | 7.1 | 7.5 | 6.6 | 24.9 | 20.8 | 98.3 | 16.3 |  | 2 | 54.9 | 
CCCCC[C@H](O)CC(=O)CCc1ccc(O)c(OC)c1 [GINGEROL] | 32 | 30.7 | 40.8 |  |  |  |  | 42.9 | 21.8 |  | 12.1 |  |  |  | IC50 (Cytochrome P450 3A4 [13]): 73.4 µM
CCCCC/C=C/C(=O)CCc1ccc(O)c(OC)c1 [SHOGAOL] |  |  | 5.8 | 2.5 | 8.3 | 3.3 |  | 4 |  | 83.3 |  | 76.1 | 2.9 | 87 | IC50 (Cytochrome P450 1A2 [14]): 20.7 µM; IC50 (Cytochrome P450 2C19 [15]): 18.8 µM; IC50 (Cytochrome P450 2C9 [16]): 29.2 µM; IC50 (Cytochrome P450 3A4 [17]): 65.2 µM; IC50 (Cytochrome P450 2E1 [18]): 99.6 µM
